The values below come from ChEMBL document CHEMBL3627642 (Bioorg Med Chem, 2015).

Series [1] can be described thus: Inhibition of thrombin-induced rabbit platelet aggregation after 4 hrs in presence of rabbit liver microsomes. Further details: species or system Oryctolagus cuniculus.
Another series has as its system Rattus norvegicus. As to the kind of experiment: Antithrombotic activity in Sprague-Dawley rat venous thrombosis model assessed as reduction of thrombus weight administered intragastrically qd for 3 days measured 2 hrs after last dose. The class given is functional, organism-based.
The test system of another series is Mus musculus. As to the kind of experiment: Toxicity in mouse assessed as bleeding time at 22 mg/kg, po administered 90 mins before surgery measured up to 15 mins by tail bleeding test. The class given is organism-based. Conditions: in vivo.
In a further series the target is Prothrombin (Homo sapiens, UniProt P00734). Briefly: Inhibition of human thrombin using tosyl-glycyl-prolyl-arginine-4-nitranilide acetate as substrate preincubated for 10 mins by spectrophotometer analysis.

`CCOC(=O)CCN(C(=O)c1ccc2c(c1)nc1n2CCN(C(=O)OC(C)C)C1Cc1ccc(/C(N)=N/C(=O)OC(C)C)cc1)c1ccccc1` (stereo not given): the IC50 in series [1] was found to be 860 nM. In addition, the Activity entry in the series with Rattus norvegicus was “Dose-dependent effect”.

Regarding `CCCCCCOC(=O)/N=C(\N)c1ccc(CC2NCCn3c2nc2cc(C(=O)N(CCC(=O)OCc4nc(C)c(C)nc4C)c4ccccn4)ccc23)cc1` (stereo not given), the IC50 in series [1] came to 640 nM. The Activity entry in the series on Rattus norvegicus is “Dose-dependent effect”; with Mus musculus, “Non-toxic”.

On to `CCCCCCOC(=O)/N=C(\N)c1ccc(CC2NCCn3c2nc2cc(C(=O)N(CCC(=O)OCc4nc(C)c(C)nc4C)c4ccccc4)ccc23)cc1` (stereo not given), for which, in series [1], the IC50 came out at 1210 nM. For the same compound, the Activity result is “Dose-dependent effect” with Rattus norvegicus and “Toxic” with Mus musculus.

Consider `CCOC(=O)CCN(C(=O)c1ccc2c(c1)nc1n2CCN(C(=O)OCC(C)C)C1Cc1ccc(/C(N)=N/C(=O)OCC(C)C)cc1)c1ccccn1` (stereo not given), for which the IC50 in series [1] came out at 8720 nM.

Regarding `CCOC(=O)CCN(C(=O)c1ccc2c(c1)nc1n2CCN(C(=O)OC(C)(C)C)C1Cc1ccc(/C(N)=N/C(=O)OC(C)(C)C)cc1)c1ccccn1` (stereo not given), the IC50 in series [1] came out at 13800 nM.

On to `CCCCCCOC(=O)/N=C(\N)c1ccc(CC2c3nc4cc(C(=O)N(CCC(=O)OCC)c5ccccn5)ccc4n3CCN2C(=O)OCCCCCC)cc1` (stereo not given), for which the IC50 in series [1] turned out to be 750 nM. Also, the values for the Activity entry in the series on Rattus norvegicus and in the series on Mus musculus were “Dose-dependent effect” and “Non-toxic”, respectively.

Take `N=C(N)c1ccc(CC2NCCn3c2nc2cc(C(=O)N(CCC(=O)O)c4ccccn4)ccc23)cc1` (stereo not given): the figures for the IC50 (in series [1]; at Prothrombin) were 600 nM and 9.2 nM, respectively.

Regarding `CCCCCCOC(=O)/N=C(\N)c1ccc(CC2c3nc4cc(C(=O)N(CCC(=O)OCC)c5ccccc5)ccc4n3CCN2C(=O)OCCCCCC)cc1` (stereo not given), the IC50 in series [1] stood at 910 nM. In addition, the figures for the Activity result with Rattus norvegicus and with Mus musculus were “Dose-dependent effect” and “Non-toxic”, respectively.

With `CCOC(=O)CCN(C(=O)c1ccc2c(c1)nc1n2CCNC1Cc1ccc(/C(N)=N/C(=O)OCC)cc1)c1ccccn1` (stereo not given), in series [1], the IC50 stood at 4090 nM.

Consider `CCOC(=O)CCN(C(=O)c1ccc2c(c1)nc1n2CCNC1Cc1ccc(/C(N)=N/C(=O)OC(C)C)cc1)c1ccccn1` (stereo not given), for which the IC50 in series [1] came out at 870 nM.

Take `CCCCCOC(=O)/N=C(\N)c1ccc(CC2NCCn3c2nc2cc(C(=O)N(CCC(=O)OCC)c4ccccn4)ccc23)cc1` (stereo not given): the IC50 in series [1] is 27200 nM.

As to `CCCCCCOC(=O)/N=C(\N)c1ccc(CC2NCCn3c2nc2cc(C(=O)N(CCC(=O)OCC)c4ccccn4)ccc23)cc1` (stereo not given), the IC50 in series [1] came out at 730 nM. For the same compound, the Activity result with Rattus norvegicus is “Dose-dependent effect”; in the series on Mus musculus, “Toxic”.

With `CCCCCCOC(=O)NC(=N)c1ccc(NCc2nc3cc(C(=O)N(CCC(=O)OCC)c4ccccn4)ccc3n2C)cc1` [DABIGATRAN ETEXILATE], the IC50 in series [1] is 340 nM. Also, the Activity result in the series on Rattus norvegicus was “Dose-dependent effect”.

`CCOC(=O)CCN(C(=O)c1ccc2c(c1)nc1n2CCNC1Cc1ccc(/C(N)=N/C(=O)OC(C)(C)C)cc1)c1ccccn1` (stereo not given): in series [1], the IC50 amounted to 3320 nM.

With `CCOC(=O)CCN(C(=O)c1ccc2c(c1)nc1n2CCN(C(=O)OCC)C1Cc1ccc(/C(N)=N/C(=O)OCC)cc1)c1ccccn1` (stereo not given), the IC50 in series [1] was found to be 3420 nM.

`CCCCCOC(=O)/N=C(\N)c1ccc(CC2c3nc4cc(C(=O)N(CCC(=O)OCC)c5ccccn5)ccc4n3CCN2C(=O)OCCCCC)cc1` (stereo not given): the IC50 in series [1] is 17900 nM.

Regarding `CCOC(=O)CCN(C(=O)c1ccc2c(c1)nc1n2CCN(C(=O)OC(C)C)C1Cc1ccc(/C(N)=N/C(=O)OC(C)C)cc1)c1ccccn1` (stereo not given), the IC50 in series [1] came to 1520 nM.

For `CCOC(=O)CCN(C(=O)c1ccc2c(c1)nc1n2CCNC1Cc1ccc(/C(N)=N/C(=O)OCC(C)C)cc1)c1ccccn1` (stereo not given), the IC50 in series [1] turned out to be 840 nM.

For `CCOC(=O)CCN(C(=O)c1ccc2c(c1)nc1n2CCN(C(=O)OCc2ccccc2)C1Cc1ccc(/C(N)=N/C(=O)OCc2ccccc2)cc1)c1ccccn1` (stereo not given), the IC50 in series [1] amounted to 9660 nM.

With `N=C(N)c1ccc(CC2NCCn3c2nc2cc(C(=O)N(CCC(=O)O)c4ccccc4)ccc23)cc1` (stereo not given), at Prothrombin, inhibition was half-maximal at 7.48 nM (IC50).

Consider `CCCCCCOC(=O)/N=C(\N)c1ccc(CC2NCCn3c2nc2cc(C(=O)N(CCC(=O)OCC)c4ccccc4)ccc23)cc1` (stereo not given), for which the IC50 in series [1] worked out at 1440 nM. The figures for the Activity result in the series on Rattus norvegicus and with Mus musculus were “Dose-dependent effect” and “Non-toxic”, respectively.

With `CCOC(=O)CCN(C(=O)c1ccc2c(c1)nc1n2CCNC1Cc1ccc(/C(N)=N/C(=O)OCc2ccccc2)cc1)c1ccccn1` (stereo not given), in series [1], the IC50 is 5960 nM.

With `CCOC(=O)CCN(C(=O)c1ccc2c(c1)nc1n2CCNC1Cc1ccc(/C(N)=N/C(=O)OC(C)C)cc1)c1ccccc1` (stereo not given), the IC50 in series [1] is 1540 nM. Besides, the values for the Activity entry in the series with Rattus norvegicus and with Mus musculus were “Dose-dependent effect” and “Toxic”, respectively.
